Measurements published in ChEMBL document CHEMBL4477208, “Discovery and Rational Design of Pteridin-7(8H)-one-Based Inhibitors Targeting FMS-like Tyrosine Kinase 3 (FLT3) and Its Mutants” (J Med Chem, 2016).
Active and inactive are the calls of the source. The calls are words filed in the database; no cut-off is given here.

Legend:
MV4-11 [1] = test: Antitumor activity against human MV4-11 cells xenografted in nude BALB/c mouse assessed as tumor growth inhibition at 50 mg/kg, po qd for 14 days measured every 2 days; assay type: functional; settings: MV4-11, po, read-out: TGI
MV4-11 [2] = test: Antitumor activity against human MV4-11 cells xenografted in nude BALB/c mouse assessed as reduction in tumor cell proliferation by measuring Ki67 positive cells at 50 mg/kg, po qd measured after 1 to 3 days by immunohistochemical assay; assay type: functional, organism-based
THP-1 = test: Antiproliferative activity against human THP1 cells after 72 hrs by MTT assay; assay type: functional, cell-based; settings: THP-1, 72 h
MV4-11 [3] = test: Induction of apoptosis in human MV4-11 cells assessed as viable cells at 1000 nM after 48 hrs by annexin V/propidium iodide staining based FACS analysis (reference value: 90.60%); assay type: functional; settings: MV4-11, 48 h, read-out: Activity
MV4-11 [4] = test: Induction of apoptosis in human MV4-11 cells assessed as necrotic cells at 1 nM after 48 hrs by annexin V/propidium iodide staining based FACS analysis (reference value: 0.05%); assay type: functional
DMS-79 = test: Antiproliferative activity against human DMS79 cells after 72 hrs by MTT assay; assay type: functional, cell-based; settings: DMS-79, 72 h
K562 = test: cells; settings: Homo sapiens, K562, 72 h
Description: Antiproliferative activity against FLT3-deficient human K562 cells after 72 hrs by MTT assay

SW-620 = test: Antiproliferative activity against human SW620 cells after 72 hrs by SRB assay; assay type: functional, cell-based; settings: SW-620, 72 h
MV4-11 [5] = test: Induction of apoptosis in human MV4-11 cells assessed as early apoptotic cells at 10 nM after 48 hrs by annexin V/propidium iodide staining based FACS analysis (reference value: 6.31%); assay type: functional
MV4-11 [6] = test: Antitumor activity against human MV4-11 cells xenografted in nude BALB/c mouse assessed as tumor growth inhibition at 25 mg/kg, po qd for 14 days measured every 2 days; assay type: functional; settings: MV4-11, po, read-out: TGI
MV4-11 [7] = test: Cell cycle arrest in human MV4-11 cells assessed as accumulation at subG1 phase after 48 hrs by PI/RNase staining based FACS analysis; assay type: functional
MV4-11 [8] = test: Induction of apoptosis in human MV4-11 cells assessed as apoptotic cells after 48 hrs by annexin V/propidium iodide staining based FACS analysis; assay type: functional, cell-based
MV4-11 [9] = test: Cell cycle arrest in human MV4-11 cells assessed as cell debris level at 1000 nM after 48 hrs by PI/RNase staining based FACS analysis; assay type: functional
MV4-11 [10] = test: Cell cycle arrest in human MV4-11 cells assessed as accumulation at S phase at 1 nM after 48 hrs by PI/RNase staining based FACS analysis (reference value: 16.50%); assay type: functional
[11] = system: Receptor-type tyrosine-protein kinase FLT3 (Homo sapiens), P36888 [UNDEFINED MUTATION]; test: Inhibition of human FLT3 ITD/D835V mutant expressed in mammalian system assessed as remaining enzyme activity at 1 uM relative to untreated control
NCI-H1975 = test: Antiproliferative activity against human NCI-H1975 cells after 72 hrs by SRB assay; assay type: functional, cell-based; settings: NCI-H1975, 72 h
[12] = AUC (0 to infinity) in overnight fasted Sprague-Dawley rat plasma at 1 mg/kg, iv up to 24 hrs by LC-MS/MS analysis; assay type: ADME, organism-based; set-up: dose 1 mg/kg, route intravenous, time infinity
[13] = target: Receptor-type tyrosine-protein kinase FLT3 (Homo sapiens, UniProt P36888, D835V/ITD); test: Binding affinity to human partial length FLT3 ITD/D835V mutant expressed in mammalian expression system after 1 hr
MV4-11 [14] = test: Cell cycle arrest in human MV4-11 cells assessed as accumulation at G2 phase at 100 nM after 48 hrs by PI/RNase staining based FACS analysis (reference value: 13.95%); assay type: functional
HT-29 = test: Antiproliferative activity against human HT-29 cells after 72 hrs by SRB assay; assay type: functional, cell-based; settings: HT-29, 72 h
MV4-11 [15] = test: Antitumor activity against human MV4-11 cells xenografted in nude BALB/c mouse assessed as tumor growth inhibition at 25 mg/kg, ip qd for 14 days measured every 2 days; assay type: functional; settings: MV4-11, ip, read-out: TGI
[16] = target: T1, Receptor-type tyrosine-protein kinase FLT3 (Homo sapiens, UniProt P36888); test: Binding affinity to human partial length wild type FLT3 (592 to 969 residues) expressed in bacterial expression system after 1 hr
T1 sequence (P36888 whole entry): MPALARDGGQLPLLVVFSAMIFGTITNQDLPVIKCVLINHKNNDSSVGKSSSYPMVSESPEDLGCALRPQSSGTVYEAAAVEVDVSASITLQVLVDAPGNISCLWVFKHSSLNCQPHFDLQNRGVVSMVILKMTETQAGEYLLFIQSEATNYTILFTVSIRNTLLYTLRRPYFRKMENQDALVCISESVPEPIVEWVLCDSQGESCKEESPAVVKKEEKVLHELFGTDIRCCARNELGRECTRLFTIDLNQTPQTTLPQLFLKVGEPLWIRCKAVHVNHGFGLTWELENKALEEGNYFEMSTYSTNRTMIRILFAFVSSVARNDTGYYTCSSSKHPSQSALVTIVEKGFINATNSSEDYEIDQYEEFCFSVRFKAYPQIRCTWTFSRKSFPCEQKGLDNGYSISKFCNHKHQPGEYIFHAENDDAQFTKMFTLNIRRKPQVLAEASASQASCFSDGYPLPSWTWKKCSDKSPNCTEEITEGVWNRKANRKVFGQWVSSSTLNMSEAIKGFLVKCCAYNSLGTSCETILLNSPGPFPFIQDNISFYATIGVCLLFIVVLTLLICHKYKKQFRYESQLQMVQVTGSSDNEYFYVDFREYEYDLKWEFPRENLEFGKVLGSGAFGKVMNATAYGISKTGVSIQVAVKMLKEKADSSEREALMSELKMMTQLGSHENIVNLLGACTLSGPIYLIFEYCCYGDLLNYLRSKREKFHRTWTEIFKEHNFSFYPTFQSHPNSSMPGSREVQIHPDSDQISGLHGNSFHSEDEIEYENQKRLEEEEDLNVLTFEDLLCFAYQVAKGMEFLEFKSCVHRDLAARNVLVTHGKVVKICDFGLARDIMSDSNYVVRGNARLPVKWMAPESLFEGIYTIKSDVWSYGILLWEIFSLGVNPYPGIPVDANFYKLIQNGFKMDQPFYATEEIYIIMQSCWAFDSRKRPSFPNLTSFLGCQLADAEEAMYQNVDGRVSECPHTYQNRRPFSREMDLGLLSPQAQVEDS

A549 = test: Antiproliferative activity against human A549 cells after 72 hrs by SRB assay; assay type: functional, cell-based; settings: A549, 72 h
[17] = target: Interleukin-1 receptor-associated kinase 1 (Homo sapiens) (UniProt P51617); test: Inhibition of human IRAK1 expressed in mammalian system assessed as remaining enzyme activity at 1 uM relative to untreated control
MOLM-13 = test: Antiproliferative activity against human MOLM13 cells harboring FLT3-ITD mutant after 72 hrs by MTT assay; assay type: functional, cell-based; settings: MOLM-13, 72 h
MV4-11 [18] = test: Induction of apoptosis in human MV4-11 cells assessed as early apoptotic cells at 1000 nM after 48 hrs by annexin V/propidium iodide staining based FACS analysis (reference value: 6.31%); assay type: functional

Interleukin-1 receptor-associated kinase 1 (Homo sapiens), sequence (P51617 whole entry, looked up): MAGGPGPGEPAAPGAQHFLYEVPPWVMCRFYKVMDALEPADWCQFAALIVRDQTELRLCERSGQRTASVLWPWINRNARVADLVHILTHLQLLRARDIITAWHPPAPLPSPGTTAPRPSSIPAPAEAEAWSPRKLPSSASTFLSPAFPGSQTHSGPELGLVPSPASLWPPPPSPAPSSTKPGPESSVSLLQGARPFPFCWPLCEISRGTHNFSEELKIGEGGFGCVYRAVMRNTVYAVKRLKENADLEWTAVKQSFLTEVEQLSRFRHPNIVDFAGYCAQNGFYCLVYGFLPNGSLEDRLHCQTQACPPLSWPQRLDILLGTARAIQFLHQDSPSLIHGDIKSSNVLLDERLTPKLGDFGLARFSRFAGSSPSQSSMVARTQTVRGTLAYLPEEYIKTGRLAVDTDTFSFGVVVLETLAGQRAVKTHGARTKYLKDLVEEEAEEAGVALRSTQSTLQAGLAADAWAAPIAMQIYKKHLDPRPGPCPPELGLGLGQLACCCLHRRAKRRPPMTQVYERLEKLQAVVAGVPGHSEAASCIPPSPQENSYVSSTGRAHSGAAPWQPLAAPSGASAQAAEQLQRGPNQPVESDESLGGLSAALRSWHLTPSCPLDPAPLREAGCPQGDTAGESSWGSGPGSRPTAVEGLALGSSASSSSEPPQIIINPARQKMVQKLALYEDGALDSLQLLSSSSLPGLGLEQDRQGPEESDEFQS

Cc1cc(Nc2ncc3ncc(=O)n(-c4ccc(N)cc4)c3n2)ccc1N1CCN(C)CC1
inhibition in vivo at 50 mg/kg (MV4-11 [1]): 128%
Activity (MV4-11 [2]): Active
IC50 (THP-1): > 10000 nM
viability at 1 µM (MV4-11 [3]): 27.3%
Activity (MV4-11 [4]): 0.1%
IC50 (DMS-79): > 10000 nM
IC50 (K562): > 10000 nM
IC50 (SW-620): 2530 nM
Activity (MV4-11 [5]): 9.71%
inhibition in vivo at 25 mg/kg (MV4-11 [6]): 87%
Activity (MV4-11 [7]): Dose-dependent effect
Activity (MV4-11 [8]): Dose-dependent effect
Activity (MV4-11 [9]): 16.38%
Activity (MV4-11 [10]): 21.77%
Activity [11]: < 1%
IC50 (NCI-H1975): 4460 nM
AUC(0-inf) [12]: 119 ng·h/mL
Kd [13]: 0.79 nM
Activity (MV4-11 [14]): 0%
IC50 (HT-29): 3020 nM
inhibition in vivo at 25 mg/kg (MV4-11 [15]): 129%
Kd [16]: 5 nM
IC50 (A549): > 10000 nM
Activity [17]: < 1%
IC50 (MOLM-13): 32.9 nM
Activity (MV4-11 [18]): 38.4%
